Measured values reported in ChEMBL document CHEMBL1127361, “Polyacrylamides bearing pendant alpha-sialoside groups strongly inhibit agglutination of erythrocytes by influenza A virus: multivalency and steric stabilization of particulate biological systems” (J Med Chem, 1994).
pKi: −log10 of the molar value. Numbered stars: 1 amine (or outer) side, 2 acyl side, 3 side chain; on linkers, the order of the positions; unused ones are H or OH. Square brackets hold non-standard residues; d marks the D form. Peptide text beside a SMILES is read from it. * marks the point of attachment. X1 = O=C(O)C1(OCCCCC(=O)[*:2])CC(O)C(N[*:1])C([C@@H](O)[C@H](O)CO)O1; NH(1-naphthylmethyl) = c1ccc2c(CN*)cccc2c1

Experiment: Tested for inhibition of hemagglutinination in chicken red blood cell (RBC)
Type: functional, Gallus gallus

SMILES | pKi
CC(=O)NC1C(O)CC(OCCCCC(=O)NCC(=O)NCC(=O)NCC(=O)NCC(=O)NCc2cccc3ccccc23)(C(=O)O)OC1[C@@H](O)[C@H](O)CO (some centres undefined) (Ac-[X1]GGGG-{NH(1-naphthylmethyl)}) | 4.52
COC1(C(=O)O)CC(O)C(NC(C)=O)C([C@@H](O)[C@H](O)CO)O1 (some centres undefined) | 2.60
CC(=O)NC1C(OC(=O)CNS(=O)(=O)c2cccc3c(N(C)C)cccc23)CC(OCCCCCCC(=O)NCc2cccc3ccccc23)(C(=O)O)OC1[C@@H](O)[C@H](O)CO (some centres undefined) | 5.52
COC1(C(=O)O)CC(O)C(NC(C)=O)C([C@@H](O)C(O)O)O1 (some centres undefined) | 2.60
C=CC(=O)NOCCCOCCCCOC1(C(=O)O)CC(O)C(NC(C)=O)C([C@@H](O)[C@H](O)CO)O1 (some centres undefined) | 6.52
C=CC(=O)NCCCOCCCCOC1(C(=O)O)CC(O)C(NC(C)=O)C([C@@H](O)[C@H](O)CO)O1 (some centres undefined) | 3.00
C=CC(=O)NOCCCOCCCCOC1(C(N)=O)CC(O)C(NC(C)=O)C([C@@H](O)[C@H](O)CO)O1 (some centres undefined) | < 3.22
C=CC(=O)NOCCCOCCCCOC1(C(C)=O)CC(O)C(NC(C)=O)C([C@@H](O)[C@H](O)CO)O1 (some centres undefined) | < 3.22
COC(=O)C1(OC)CC(O)C(NC(C)=O)C([C@@H](O)[C@H](O)CO)O1 (some centres undefined) | 1.85
